Data reported in patent US11812774B2, “Composition for browning inhibition and use of same” (SUNTORY HOLDINGS LIMITED, priority 2016, dated 2023).
Each block holds one compound with its values, some of them ahead of it.

Columns and labels:
[1] = Accelerated aging of epicatechin/glyoxal model solution, change in visible absorption spectrum; conditions: baicalin 0.5 g/L added to epicatechin 0.5 g/L + glyoxal 0.01 g/L; condition 3 (oxygen aeration, 123° C., 30 minutes); compared to no baicalin
Description: The preparation prepared above was subjected to an aging test under the following conditions, and then the visible absorption spectrum was measured. Condition 1: purged with nitrogen, stored at 4° C. for one hour Condition 2: stored at 121° C. for […] Condition 3: after oxygen aeration, stored at 123° C. for 30 minutes Baicalin (0.5 g/L) was added to a model solution obtained by mixing epicatechin (0.5 g/L) with glyoxal (0.01 g/L). The mixture was accelerated-aged under condition 3 (after oxygen aeration, stored at 123° C. for 30 minutes) in Test Example 2, and the amount of change in the visible absorption spectrum (ΔABU) before and after accelerated aging was calculated. FIG. 9 is a diagram showing changes in a visible absorption spectrum of the model solution by addition of baicalin.

[2] = Accelerated aging of baicalin/epicatechin/glyoxal mixtures, visible absorption spectrum and residual catechin by LC-MS; conditions: 15 minutes
Description: The following three kinds of solutions were prepared. B+G: a mixture of baicalin (0.5 g/L) and glyoxal (0.01 g/L) B+C+G: a mixture of baicalin (0.5 g/L), epicatechin (0.5 g/L), and glyoxal (0.01 g/L) C+G: a mixture of epicatechin (0.5 g/L) and glyoxal (0.01 g/L)
These solutions were kept in an autoclave at 121° C. for 15 minutes for accelerated aging. After accelerated aging, changes in color were checked by visual observation, and further, the visible absorption spectrum was measured.
FIG. 10(a) is a picture showing the appearance of the mixture of baicalin and glyoxal (B+G), the mixture of baicalin, epicatechin, and glyoxal (B+C+G), and the mixture of epicatechin and glyoxal (C+G) after accelerated aging; and FIG. 10(b) is a diagram showing visible absorption spectra of the same (FIG. 10(a): picture, (b): visible absorption spectra). In FIG. 10(b), the solid line indicates the mixture (B+G), the dashed line indicates the mixture (B+C+G), and the long dashed dotted line indicates the mixture (C+G).
Further, after accelerated aging, the amount of epicatechin (the amount of a residual catechin) in the mixture (B+C+G) and the mixture (C+G) was measured by LC-MS under the same conditions as in Test Example 3.

[3] = LC-MS analysis of accelerated-aged mixture of baicalin and glyoxal; conditions: baicalin 0.5 g/L + glyoxal 0.01 g/L, condition 3 (oxygen aeration, 123° C., 30 min)
Description: A mixture (green tea model) of epicatechin (EC) (0.5 g/L) and glyoxal (0.01 g/L) was accelerated-aged under condition 3 (after oxygen aeration, stored at 123° C. for 30 minutes) in Test Example 2, and analyzed by LC-MS under the following conditions. • LC-MS measurement conditions • LC • Column: 2.5 Cholester (Nacalai Tesque, Inc.) (100 mmL.×2.0 I.D.) • Mobile phase: • A: 0.1% formic acid/H2O • B: 0.1% formic acid/CH3CN • Gradient elution method • Time program (concentration of B solution is expressed in percent by volume): B 5% (0-0.5 min)→B 32% (20 min)→B 100% (25-27.5 min)→B 5% (27.51-30 min) • Flow rate: 0.25 mL/min • Column temperature: 40° C. • Sample injection volume: 2 μL • MS • Probe voltage: +4.5 kV (ESI positive mode) • −3.5 kV (ESI negative mode) • Nebulizer gas flow rate: 1.5 L/min • Drying gas flow rate: 20 L/min • DL temperature: 250° C. • DL voltage/Q-array voltage: default value • SCAN: m/z 100-800 (positive, negative) • SIM: A mixture of baicalin (0.5 g/L) and glyoxal (0.01 g/L) was accelerated-aged under condition 3 (after oxygen aeration, stored at 30 min at 123° C.) of Test Example 2, and analyzed by LC-MS. LC-MS measurement conditions are the same as those in Test Example 5. […]

[4] = Aldehyde-scavenging substance screening (Br value and Xt value, 96-well microplate); conditions: sample solution 600 ppm total phenol; epicatechin + glyoxal; 70° C., 16 hours; Br and Xt values relative to negative control; N=3
Description: Aldehyde-scavenging ability of a candidate substance was evaluated based on how much the candidate substance added to a mixture of glyoxal (model aldehyde) and epicatechin (reaction substrate) can inhibit browning. The negative control was distilled water. As positive control, fractions 6, 7, and 8 (mixtures containing baicalin and baicalin glycosides (compounds containing one to three glucose molecules bonded to a sugar moiety of baicalin)) obtained in Preparation 1 were used.
A glyoxal aqueous solution (39% (v/v)) and epicatechin were used as reagents. […]
Accelerated aging was performed at 70° C. for 16 hours, and the area under the spectrum at 400 to 600 nm and the absorbance at 487 nm were measured.
The amount of change in the visible absorbance before and after accelerated aging was calculated. […] The Br value indicates the amount of change Δ in the area under the spectrum at 400 to 600 nm, and the Xt value indicates the amount of change Δ in the absorbance at 487 nm. […] In FIG. 14, the solid line indicates the absorbance when a substance having an aldehyde-scavenging effect (a substance having a browning-inhibiting effect) was added, and the dashed line indicates the absorbance of the negative control. […]

[5] = Description: A sample solution was prepared by dissolving a candidate substance in water to adjust the total phenol amount derived from the candidate substance to 600 ppm. The total phenol amount was measured by the Folin-Denis method, using gallic acid as a standard substance.

SMILES: O=C(O)[C@H]1O[C@@H](Oc2cc3oc(-c4ccccc4)cc(=O)c3c(O)c2O)[C@H](O)[C@@H](O)[C@@H]1O [baicalin]
amount of change in the visible absorption spectrum (ΔABU) before and after accelerated aging [1]: significantly reduced
absorption at 487 nm after accelerated aging ([2]; B+C+G (baicalin 0.5 g/L, epicatechin 0.5 g/L, glyoxal 0.01 g/L) vs C+G, autoclave 121° C.): significantly reduces
amount of the residual catechin in a solution after accelerated aging ([2]; B+C+G vs C+G, 121° C., epicatechin by LC-MS): increases
production of compound having a xanthylium structure (brown) by reaction with glyoxal [3]: No compound having a xanthylium structure that exhibits brown was detected

water solubility [5]: poor water solubility
SMILES: COc1ccc(-c2oc3c(CC=C(C)C)c(O[C@@H]4O[C@H](CO)[C@@H](O)[C@H](O)[C@H]4O)cc(O)c3c(=O)c2O[C@@H]2O[C@@H](C)[C@H](O)[C@@H](O)[C@H]2O)cc1 [icariin]
aldehyde-scavenging ability [4]: confirmed

SMILES: O=C(O)[C@H]1O[C@@H](Oc2cc3oc(-c4ccc(O)cc4)cc(=O)c3c(O)c2O)[C@H](O)[C@@H](O)[C@@H]1O [scutellarin]
aldehyde-scavenging ability [4]: confirmed
